59 compounds from patent US20240132513A1, “BENZAZEPINE DERIVATIVES, COMPOSITIONS, AND METHODS FOR TREATING COGNITIVE IMPAIRMENT” (AGENEBIO, INC., priority 2022, published 2024) can be followed below.

The assay addresses α5β3γ2 GABAA R (Homo sapiens, UniProt P18507+P31644). The assay can be described thus: Binding activity on GABAA R: inhibition of [3H]Ro15-1788 binding, α5 containing receptor. As to the method: Tissue culture and Membrane Preparation: The binding was performed on Ltk cells stably expressing GABAA R: […], α2β3γ2, α3β3γ2 and α5β3γ2 (provided by Merck Co., NJ, USA). Cells were seeded in 100 mm culture plates in DMEM/F12 medium containing 10% serum and antibiotics in 5% CO2 and allowed to grow for 1-2 days. GABAAR expression was then induced by dexamethasone as follows: 0.5 μM for 1 day for α5 containing and 2 μM for 3 days for α1, α2 and α3 containing GABAARs. After induction, cells were collected by scraping into Dulbecco's Phosphate buffered saline (DPBS, pH 7.4, Invitrogen, Carlsbad, CA, USA) and centrifuged at 150×g for 10 min. The pellet was washed twice by re-suspension and centrifugation. The cell pellets from at least 5 different preps were combined, suspended in the binding assay buffer (50 mM KH2PO4; 1 mM EDTA; 0.2 M KCl, pH 7.4) and membranes prepared by sonication (3-5 times, 30 sec) using Branson Sonifier 150 (G. Heinmann, Germany). Protein content was determined using BCA assay (Bio-Rad Labs, Reinach, Switzerland) with Bovine Serum Albumin (Sigma Aldrich, St. Louis, MO, USA) as the standard. Aliquots were prepared and stored at −20° C. for further use in binding assays.
Ligand Binding: Saturation binding curves were obtained by incubating membranes with increasing concentrations (0.01-8 nM) of [^3H]Rol5-1788 (Flumazepil, 75-85 Ci/mmol, PerkinElmer, MA, USA), with nonspecific binding measured in the presence of 10 μM diazepam.
All binding assays were performed for 1 h at 4° C. in assay buffer. The total assay volume was 0.5 ml containing 0.2 mg/ml protein for α5 and 0.4 mg/ml for α1, α2, and α3 containing GABAAR membranes. Incubations were terminated by filtration through GF/B filters using a 24-Cell Harvestor (Brandel, Gaithersburg, MD, USA) followed by 3 washes with ice-cold assay buffer. Filters were transferred to scintillation vials, 5 ml scintillation liquid added, vortex-mixed and kept in dark. Next day, radioactivity was obtained using a scintillation counter (Beckman Coulter, Brea, CA, USA). All assays were performed in triplicate.
Data Analyses: Saturation and inhibition curves were obtained using GraphPad Prism software (GraphPad Software, Inc., CA, USA).

The mark [1] stands for this setting: ranges of the column heads, [3H]Ro15-1788, Ltk cell membranes.

The structures appear in SMILES notation. Like-named read-outs stand apart in the source and are kept apart here.

Sequence of α5β3γ2 GABAA R (P31644 32-462): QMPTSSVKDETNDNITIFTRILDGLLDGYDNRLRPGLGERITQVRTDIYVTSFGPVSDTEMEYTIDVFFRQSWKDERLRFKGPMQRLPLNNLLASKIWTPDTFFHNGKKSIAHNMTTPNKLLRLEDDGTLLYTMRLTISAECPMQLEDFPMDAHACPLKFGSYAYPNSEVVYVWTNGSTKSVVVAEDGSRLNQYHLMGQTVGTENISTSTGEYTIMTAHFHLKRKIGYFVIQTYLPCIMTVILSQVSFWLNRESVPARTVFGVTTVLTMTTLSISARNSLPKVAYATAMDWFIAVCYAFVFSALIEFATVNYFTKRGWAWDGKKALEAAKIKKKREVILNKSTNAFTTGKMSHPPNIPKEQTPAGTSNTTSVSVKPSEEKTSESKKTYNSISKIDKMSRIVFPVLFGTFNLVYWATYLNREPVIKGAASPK
Sequence of α5β3γ2 GABAA R (P28472 26-473 partner): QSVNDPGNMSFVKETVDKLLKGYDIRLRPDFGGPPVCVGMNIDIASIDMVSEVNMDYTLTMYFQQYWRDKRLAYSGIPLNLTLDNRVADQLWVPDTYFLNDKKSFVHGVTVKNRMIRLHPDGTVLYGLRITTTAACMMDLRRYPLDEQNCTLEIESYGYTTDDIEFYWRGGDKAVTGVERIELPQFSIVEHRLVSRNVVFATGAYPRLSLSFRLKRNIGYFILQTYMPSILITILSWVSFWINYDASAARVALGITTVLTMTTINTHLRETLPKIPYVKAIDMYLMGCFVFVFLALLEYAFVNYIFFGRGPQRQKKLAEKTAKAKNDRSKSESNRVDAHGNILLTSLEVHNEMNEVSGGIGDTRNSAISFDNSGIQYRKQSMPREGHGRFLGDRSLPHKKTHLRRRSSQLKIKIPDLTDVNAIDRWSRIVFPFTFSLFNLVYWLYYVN
Sequence of α5β3γ2 GABAA R (P18507 40-475): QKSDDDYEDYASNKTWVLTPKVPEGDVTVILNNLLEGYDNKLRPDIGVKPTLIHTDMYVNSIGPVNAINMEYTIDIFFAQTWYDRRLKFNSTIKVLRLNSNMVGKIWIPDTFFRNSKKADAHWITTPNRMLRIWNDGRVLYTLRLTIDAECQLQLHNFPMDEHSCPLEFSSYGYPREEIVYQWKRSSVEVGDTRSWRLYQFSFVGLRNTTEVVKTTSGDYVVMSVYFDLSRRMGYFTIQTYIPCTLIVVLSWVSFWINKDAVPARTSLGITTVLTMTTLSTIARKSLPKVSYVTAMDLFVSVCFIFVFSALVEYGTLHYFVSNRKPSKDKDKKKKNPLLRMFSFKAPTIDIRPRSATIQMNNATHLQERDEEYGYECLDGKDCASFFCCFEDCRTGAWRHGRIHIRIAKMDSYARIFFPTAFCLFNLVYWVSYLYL

Consider `Cn1cc2c(n1)-c1cc(Cl)ccc1-n1cnc(-c3noc(Cn4cccc4)n3)c1C2` [Compound 371], for which the Ki was under 100 nM. With `CC#Cc1ncn2c1Cc1cn[nH]c1-c1cc(Cl)ccc1-2` [Compound 65], the Ki is under 100 nM.

In turn, `COc1ccc2c(c1)-c1nn(Cc3ccccc3)cc1Cc1c(-c3nc(C(C)(C)C)no3)ncn1-2` [Compound 17] came in with a Ki of under 100 nM. Still for that read-out and setting: the figure for `COc1ccc2c(c1)-c1nn(CC3COC3)cc1Cc1c(-c3noc(C4(OC)CC4)n3)ncn1-2` [Compound 331] is under 100 nM.

Under setting [1], `COc1ccc2c(c1)-c1nn(C)cc1Cc1c(-c3noc(C4(O)CC4)n3)ncn1-2` [Compound 363] registered a Ki of under 100 nM. With `COc1ccc2c(c1)-c1[nH]ncc1Cc1c(C#Cc3ccc(OC)nc3)ncn1-2` [Compound 38], the Ki was under 100 nM. On the same count and under the same terms, under `COc1ccc2c(c1)-c1nn(C)cc1Cc1c(-c3noc(C4(O)CCCC4)n3)ncn1-2` [Compound 384] stands under 100 nM. In turn, `COc1ccc2c(c1)-c1oncc1Cc1c(C3=N[C@@H](c4ccccc4)CO3)ncn1-2` [Compound 48] returned a Ki under setting [1] of over 1000 nM.

Regarding `COc1ccc2c(c1)-c1[nH]ncc1Cc1c(C3=CCCC3)ncn1-2` [Compound 74], under setting [1], the Ki was 100 to 1000 nM. Take `CCn1cc2c(n1)-c1cc(Cl)ccc1-n1cnc(-c3noc(C(C)(C)OC)n3)c1C2` [Compound 196]: the Ki is under 100 nM. On the same count and under the same terms, the figure for `Clc1ccc2c(c1)-c1nn(CC3CCCO3)cc1Cc1c(-c3noc(C4CCOCC4)n3)ncn1-2` (centres unmarked) [Compound 362] is under 100 nM.

As to `COc1ccc2c(c1)-c1[nH]ncc1Cc1c(-c3cnn(Cc4ccccc4)c3)ncn1-2` [Compound 72], the Ki is under 100 nM. `Cc1noc(-c2ncn3c2Cc2cnoc2-c2cc(Cl)ccc2-3)n1` [Compound 69] gave an inhibition constant Ki under setting [1] of over 1000 nM. For the compound `CC1(c2nc(-c3ncn4c3Cc3cn(CC5CCCO5)nc3-c3cc(Cl)ccc3-4)no2)CCOCC1` (centres unmarked) [Compound 365], the Ki is under 100 nM. `COc1ccc2c(c1)-c1nn(Cc3cccc(F)c3)cc1Cc1c(-c3nc(C)no3)ncn1-2` [Compound 22] came in with a Ki of under 100 nM. Still for that read-out and setting: the figure for `CCn1cc2c(n1)-c1cc(OC)ccc1-n1cnc(-c3nc(CN(C)C)no3)c1C2` [Compound 241] is under 100 nM.

`COc1ccc2c(c1)-c1c(cnn1CC1CCOC1)Cc1c(-c3nc(C(C)C)no3)ncn1-2` (centres unmarked) [Compound 246] displayed a Ki under setting [1] of under 100 nM. Consider `Cn1cc2c(n1)-c1cc(Cl)ccc1-n1cnc(-c3ncco3)c1C2` [Compound 166], for which the Ki was under 100 nM.

Compound `Clc1ccc2c(c1)-c1c(cnn1Cc1ccccc1)Cc1c(C3=N[C@H](c4ccccc4)CO3)ncn1-2` [Compound 5] displayed a Ki of 100 to 1000 nM. The same measure, in the same setting: the figure for `COc1ccc2c(c1)-c1nn(CCOC(F)(F)F)cc1Cc1c(-c3noc(C4(OC)CC4)n3)ncn1-2` [Compound 330] is under 100 nM. Still for that read-out and setting: the figure for `COC1(c2nc(-c3ncn4c3Cc3cn(CC5CCCO5)nc3-c3cc(Cl)ccc3-4)no2)CC1` (centres unmarked) [Compound 322] is under 100 nM; for `COCc1noc(-c2ncn3c2Cc2cn(C)nc2-c2cc(Cl)ccc2-3)n1` [Compound 235] it is under 100 nM; for `COc1ccc2c(c1)-c1nn(C)cc1Cc1c(-c3nnc(C4COCCO4)o3)ncn1-2` (centres unmarked) [Compound 325] it is under 100 nM. The compound `COCc1nnc(-c2ncn3c2Cc2cn(C)nc2-c2cc(OC)ccc2-3)o1` [Compound 326] yielded a Ki of under 100 nM.

Compound `COc1ccc2c(c1)-c1c(cnn1C)Cc1c(-c3nc(CN4CCOCC4)no3)ncn1-2` [Compound 329] came in with a Ki under setting [1] of 100 to 1000 nM.

Take `COc1ccc2c(c1)-c1nn(C)cc1Cc1c(-c3nc(C4CCOC4)co3)ncn1-2` (centres unmarked) [Compound 262]: under setting [1], the Ki was over 1000 nM. Regarding `COc1ccc2c(c1)-c1[nH]ncc1Cc1c(-c3cn(C)nc3C(F)(F)F)ncn1-2` [Compound 81], under setting [1], the Ki was over 1000 nM. Take `Cn1cc2c(n1)-c1cc(Cl)ccc1-n1cnc(-c3noc(CN4CCCC4=O)n3)c1C2` [Compound 382]: the Ki is under 100 nM. For `COc1ccc2c(c1)-c1c(cnn1C)Cc1c(-c3noc(C4(OC)CC4)n3)ncn1-2` [Compound 204], the Ki was under 100 nM. With `CCOC(=O)c1cnc2n1CC(=O)N(Cc1ccc(OC)cc1OC)c1cc(Cl)ccc1-2` [Compound 25], the Ki under setting [1] is over 1000 nM.

Compound `CC(C)(C)C#Cc1ncn2c1Cc1cn(Cc3ccccc3)nc1-c1cc(Cl)ccc1-2` [Compound 92] had a Ki of under 100 nM.

As to `COc1ccc2c(c1)-c1nn(C)cc1Cc1c(-c3nc(COC4CCOC4)co3)ncn1-2` (centres unmarked) [Compound 273], the Ki is under 100 nM.

Under setting [1], `CC(C)Cc1noc(-c2ncn3c2Cc2cnoc2-c2cc(Cl)ccc2-3)n1` [Compound 66] returned a Ki of over 1000 nM. `COc1ccc2c(c1)-c1nn(C)cc1Cc1c(-c3noc(C(C)(C)CO)n3)ncn1-2` [Compound 376] gave a Ki of under 100 nM. Still for that read-out and setting: under `COCCOCc1coc(-c2ncn3c2Cc2cn(C)nc2-c2cc(OC)ccc2-3)n1` [Compound 272] stands under 100 nM; under `COc1ccc2c(c1)-c1nn(C)cc1Cc1c(-c3nc(CN4CCOCC4)no3)ncn1-2` [Compound 328], under 100 nM; under `COc1ccc2c(c1)-c1c(cnn1C)Cc1c(-c3noc(C(C)(C)OC)n3)ncn1-2` [Compound 186], 100 to 1000 nM. Still for that read-out and setting: under `COCCOCc1coc(-c2ncn3c2Cc2cn(C)nc2-c2cc(Cl)ccc2-3)n1` [Compound 278] stands under 100 nM; under `COc1ccc2c(c1)-c1c(cnn1CC1CC1)Cc1c(-c3nc(C(F)(F)F)no3)ncn1-2` [Compound 117], under 100 nM. For the compound `CN1C(=O)Cn2c(C3=N[C@H](c4ccccc4)CO3)cnc2-c2ccc(Cl)cc21` [Compound 29], under setting [1], the Ki is over 1000 nM. Regarding `COc1ccc2c(c1)-c1nn(C)cc1Cc1c(-c3nnc(COCC(F)(F)F)o3)ncn1-2` [Compound 334], the Ki is under 100 nM. The compound `CCn1cc2c(n1)-c1cc(Cl)ccc1-n1cnc(-c3noc(CN(C)C)n3)c1C2` [Compound 349] gave a Ki of under 100 nM. Consider `CCn1cc2c(n1)-c1cc(OC)ccc1-n1cnc(-c3nc(C(C)(C)OC)no3)c1C2` [Compound 234], for which the Ki is under 100 nM. As for `CC(C)c1noc(-c2cnc3n2CC(=O)Nc2cc(Cl)ccc2-3)n1` [Compound 27], the Ki under setting [1] was over 1000 nM. For the compound `COc1ccc2c(c1)-c1nn(C)cc1Cc1c(-c3nc(C(C)(C)OC)no3)ncn1-2` [Compound 335], the Ki was under 100 nM.

On to `COc1ccc2c(c1)-c1oncc1Cc1c(-c3nc(C)no3)ncn1-2` [Compound 42], for which the Ki under setting [1] was over 1000 nM. The compound `COc1ccc2c(c1)-c1nn(CC3CCOC3)cc1Cc1c(-c3noc(C(C)(C)OC)n3)ncn1-2` (centres unmarked) [Compound 374] came in with a Ki of under 100 nM. The same measure, in the same setting: the figure for `CC(C)n1cc2c(n1)-c1cc(Cl)ccc1-n1cnc(-c3cnn(Cc4ccccc4)c3)c1C2` [Compound 165] is 100 to 1000 nM; for `CCOC1(c2nc(-c3ncn4c3Cc3cn(C)nc3-c3cc(OC)ccc3-4)no2)CC1` [Compound 357] it is under 100 nM; for `COc1ccc2c(c1)-c1nn(C)cc1Cc1c(-c3nc(CN4CCCC4=O)co3)ncn1-2` [Compound 379] it is under 100 nM. In turn, `COCc1noc(-c2ncn3c2Cc2cn(CC4CCOC4)nc2-c2cc(Cl)ccc2-3)n1` (centres unmarked) [Compound 351] showed a Ki of under 100 nM. The same measure, in the same setting: under `Cc1noc(-c2ncn3c2Cc2cnn(Cc4ccccc4)c2-c2cc(Cl)ccc2-3)n1` [Compound 1] stands under 100 nM. For the compound `COc1ccc2c(c1)-c1nn(C)cc1Cc1c(-c3nc(CN(C(C)=O)C(C)C)co3)ncn1-2` [Compound 381], under setting [1], the Ki is under 100 nM.

In the case of `COc1ccc2c(c1)-c1[nH]ncc1Cc1c(C3=N[C@H](c4ccc(Cl)cc4)CO3)ncn1-2` [Compound 24], the Ki was under 100 nM. Still for that read-out and setting: under `Cn1cc2c(n1)-c1cc(Cl)ccc1-n1cnc(-c3cnn(C4CCCO4)c3)c1C2` (centres unmarked) [Compound 221] stands 100 to 1000 nM; under `COc1ccc2c(c1)-c1nn(CC3CCOC3)cc1Cc1c(-c3nc(C(F)(F)F)no3)ncn1-2` (centres unmarked) [Compound 265], under 100 nM. Consider `COc1ccc2c(c1)-c1nn(C)cc1Cc1c(-c3noc(COC(F)(F)F)n3)ncn1-2` [Compound 359], for which the Ki is under 100 nM. Same read-out and setting: under `COc1ccc(C#Cc2ncn3c2Cc2cn[nH]c2-c2cc(OC)ccc2-3)nc1` [Compound 53] stands under 100 nM; under `CN(C)Cc1noc(-c2ncn3c2Cc2cn(C)nc2-c2cc(Cl)ccc2-3)n1` [Compound 240], under 100 nM.

As usually defined, the Ki is a measure of affinity in units of concentration, obtained from inhibition or displacement.
